Test results reported in BigSolDB 2.1.

COC(=O)Nc1nc2ccc(Sc3ccccc3)cc2[nH]1
solubility (mole fraction)
Details	283.15 K	288.15 K	293.15 K	298.15 K	303.15 K	308.15 K	313.15 K	318.15 K	323.15 K	328.15 K
in DMF	0.0397	0.0559	0.0731	0.0997	0.134	0.175	0.227	0.291	0.374	0.47
in ethanol	0.000165	0.000219	0.000291	0.000378	0.000478	0.000598	0.000734	0.000918	0.00112	0.00137
in ethylene glycol	0.000127	0.000171	0.000232	0.000305	0.0004	0.000513	0.000648	0.000812	0.00101	0.00126
in water	3.69e-06	4.51e-06	5.71e-06	7.25e-06	9.03e-06	1.12e-05	1.38e-05	1.7e-05	2.07e-05	2.51e-05
